Measurements from patent US20200361895A1, “NOVEL SULFONAMIDE CARBOXAMIDE COMPOUNDS” (Inflazome Limited, priority 2017, published 2020).
Structures can show the parent of a compound that is named as a salt. Where two headings read alike, the source gives them in different places.

Legend:
[1] = biological target: T1, NLRP3 (Homo sapiens, UniProt Q96P20); experiment: THP-1 cells pyroptosis assay (LPS + nigericin, resazurin readout; THP IC50); assay type: cell-based; parameters: Seed THP-1 cells (25,000 cells/well) containing 1.0 μg/ml LPS in 40 μl of RPMI medium; host or cells: THP-1 cells
T1 sequence (Q96P20 whole entry): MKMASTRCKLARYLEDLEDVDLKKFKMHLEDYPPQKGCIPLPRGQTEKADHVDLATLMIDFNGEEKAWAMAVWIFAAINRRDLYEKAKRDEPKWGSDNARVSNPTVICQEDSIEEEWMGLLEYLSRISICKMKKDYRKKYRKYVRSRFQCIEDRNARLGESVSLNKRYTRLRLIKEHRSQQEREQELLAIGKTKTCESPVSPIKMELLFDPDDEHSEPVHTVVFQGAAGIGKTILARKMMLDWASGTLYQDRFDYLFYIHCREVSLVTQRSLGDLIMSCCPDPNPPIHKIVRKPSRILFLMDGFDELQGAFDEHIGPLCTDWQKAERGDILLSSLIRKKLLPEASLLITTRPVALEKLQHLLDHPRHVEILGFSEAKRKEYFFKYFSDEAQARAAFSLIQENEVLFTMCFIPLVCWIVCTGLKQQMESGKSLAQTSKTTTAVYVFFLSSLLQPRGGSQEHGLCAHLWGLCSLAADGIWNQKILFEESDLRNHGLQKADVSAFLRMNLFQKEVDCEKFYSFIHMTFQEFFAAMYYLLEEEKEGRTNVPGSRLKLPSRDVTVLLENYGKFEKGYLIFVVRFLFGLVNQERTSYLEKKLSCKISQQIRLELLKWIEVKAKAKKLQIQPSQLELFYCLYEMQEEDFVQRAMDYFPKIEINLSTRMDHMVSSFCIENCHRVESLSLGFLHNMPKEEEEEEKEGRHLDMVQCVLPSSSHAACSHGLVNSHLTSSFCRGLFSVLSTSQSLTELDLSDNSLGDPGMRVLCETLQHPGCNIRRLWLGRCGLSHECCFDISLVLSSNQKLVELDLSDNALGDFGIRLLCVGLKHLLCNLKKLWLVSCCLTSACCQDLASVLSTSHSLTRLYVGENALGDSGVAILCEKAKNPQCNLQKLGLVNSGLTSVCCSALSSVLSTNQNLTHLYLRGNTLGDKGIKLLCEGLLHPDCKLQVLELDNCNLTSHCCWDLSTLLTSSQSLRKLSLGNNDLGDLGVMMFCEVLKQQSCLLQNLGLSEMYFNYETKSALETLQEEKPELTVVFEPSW
Method in brief: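 IC50 from 4-parameter fit of resazurin fluorescence (100 μM, 1-2 hrs), reflecting surviving cells after pyroptosis. LPS-primed (1 μg/ml) THP-1 cells in FBS-free RPMI got compound for 3 hrs at 37° C (top 10 μM, half-log, 8 points), then nigericin 5 μM for 1 hr.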

[2] = PK protocol, intravenous administration; assay type: in vivo, male Sprague Dawley rats; conditions: male, Sprague Dawley, plasma, rat; for Vd: read-out: Vdss
Protocol: Pharmacokinetic parameters were determined in male Sprague Dawley rats (Charles River, UK, 250-350 g; or Vital River Laboratory Animal Technology Co Ltd, Beijing, China, 7-9 weeks old). Animals were individually housed during the study and maintained under a 12 h light/dark cycle. Animals had free access to food and water.
For intravenous administration, compounds were formulated as a solution in water or DMSO:PBS [10:90] in 2 mL/kg dosing volume and administered via tail vein. For oral administration, compounds were formulated as a solution in DMSO:water [10:90] in 5 mL/kg dosing volume and administered orally.
Serial blood samples (about 120-300 μL) were taken from each animal at each of 8 time-points post dose (0.083, 0.25, 0.5, 1, 2, 4, 8 and 24 h) or at each of 12 time-points post dose (0.03, 0.1, 0.17, 0.25, 0.5, 1, 2, 4, 6, 8, 12 and 24 h) or pre-dose and at each of 9 time-points post dose (0.25, 0.5, 1, 2, 4, 6, 8, 12 and 24 h). Samples were held on ice for no longer than 30 minutes before centrifugation (10,000 rpm (8,385 g) for 3 minutes; or 5,696 rpm (3,000 g) for 15 minutes) for plasma generation. Plasma was frozen on dry ice prior to bioanalysis. PK parameters were generated from LC-MS/MS data using Dotmatics or Phoenix WinNonlin 6.3 software.

[3] = biological target: T1, NLRP3; experiment: Human whole blood IL1β release assay (LPS + nigericin, AlphaLisa IL-1β; HWB IC50); assay type: cell-based; parameters: Human whole blood in Li-heparin tubes was obtained from healthy donors from a volunteer donor panel; from tissue; host or cells: human whole blood from healthy donors; conditions: IL-1β release
Method in brief: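 IL-1β in plasma supernatant quantified by AlphaLisa after nigericin (10 μM final, 1 h, 37 °C) triggering of human whole blood that had been preincubated 3 h with LPS (1 μg/ml) plus compound (half-log, 8 points, from 10 μM). IC50 by variable-slope four-parameter regression.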

Row | IC50 [1] [nM] | AUC ([2]; dose 1 mg/kg) [ng·h/mL] | clearance ([2]; dose 1 mg/kg) [mL/min/kg] | half-life ([2]; dose 1 mg/kg) [h] | Vd ([2]; dose 1 mg/kg) [L/kg] | IC50 [3] [nM] | AUC ([2]; dose 1.98 mg/kg) [ng·h/mL] | clearance ([2]; dose 1.98 mg/kg) [mL/min/kg] | half-life ([2]; dose 1.98 mg/kg) [h] | Vd ([2]; dose 1.98 mg/kg) [L/kg] | Compound
1 | ≤ 500 | 341 | 49.1 | 3.3 | 4.49 | ≤ 500 | – | – | – | – | CC(C)c1cc(F)cc(-c2cccnc2)c1NC(=O)NS(=O)(=O)c1ccn(C(C)C)n1 [Example 1, N-((4-Fluoro-2-iso-propyl-6-(pyridin-3-yl)phenyl)carbamoyl)-1-iso-propyl-1H-pyrazole-3-sulfonamide]
2 | ≤ 500 | – | – | – | – | ≤ 500 | 806 | 40.9 | 3.8 | 7.14 | CC(C)c1cc(F)cc(-c2ccncc2)c1NC(=O)NS(=O)(=O)c1ccn(C(C)C)n1 [Example 10, N-((4-Fluoro-2-iso-propyl-6-(pyridin-4-yl)phenyl)carbamoyl)-1-iso-propyl-1H-pyrazole-3-sulfonamide, partial ammonium salt]
3 | ≤ 500 | 412 | 41.9 | 0.4 | 0.41 | ≤ 500 | – | – | – | – | CC(C)c1cc(F)cc(-c2ccnc(O)c2)c1NC(=O)NS(=O)(=O)c1ccn(C(C)C)n1 [Example 25, N-((4-Fluoro-2-(2-hydroxypyridin-4-yl)-6-iso-propylphenyl)carbamoyl)-1-iso-propyl-1H-pyrazole-3-sulfonamide]
4 | ≤ 500 | 386 | 43.3 | 1.2 | 1.07 | ≤ 500 | – | – | – | – | CC(C)c1cc(F)cc(-c2ccnc(C#N)c2)c1NC(=O)NS(=O)(=O)c1ccn(C(C)C)n1 [Example 28, N-((2-(2-Cyanopyridin-4-yl)-4-fluoro-6-iso-propylphenyl)carbamoyl)-1-iso-propyl-1H-pyrazole-3-sulfonamide]
5 | ≤ 5000 | 182 | 91.3 | 2.3 | 2.72 | ≤ 500 | – | – | – | – | CC(C)c1cc(F)cc(C2CCOCC2)c1NC(=O)NS(=O)(=O)c1cc(C(=O)N(C)C)n(C)n1 [Example 30, 3-(N-((4-Fluoro-2-iso-propyl-6-(tetrahydro-2H-pyran-4-yl)phenyl)carbamoyl)sulfamoyl)-N,N,1-trimethyl-1H-pyrazole-5-carboxamide, sodium salt]
6 | ≤ 500 | 274 | 60.7 | 6.3 | 3.95 | ≤ 500 | – | – | – | – | CC(C)c1cc(F)cc(-c2cccnc2)c1NC(=O)NS(=O)(=O)c1cc(C(=O)N(C)C)n(C)n1 [Example 33, 3-(N-((4-Fluoro-2-iso-propyl-6-(pyridin-3-yl)phenyl)carbamoyl)sulfamoyl)-N,N,1-trimethyl-1H-pyrazole-5-carboxamide, sodium salt]
7 | ≤ 1000 | 661 | 25.2 | 12.1 | 3.03 | ≤ 500 | – | – | – | – | CC(C)c1cc(F)cc(-c2cnn(C)c2)c1NC(=O)NS(=O)(=O)c1cc(C(=O)N(C)C)n(C)n1 [Example 34, 3-(N-((4-Fluoro-2-iso-propyl-6-(1-methyl-1H-pyrazol-4-yl)phenyl)carbamoyl)sulfamoyl)-N,N,1-trimethyl-1H-pyrazole-5-carboxamide, sodium salt]
8 | ≤ 500 | 356 | 47.6 | 0.5 | 0.8 | ≤ 500 | – | – | – | – | COc1cc(-c2cc(F)cc(C(C)C)c2NC(=O)NS(=O)(=O)c2cc(CN(C)C)n(C)n2)ccn1 [Example 36, 5-((Dimethylamino)methyl)-N-((4-fluoro-2-iso-propyl-6-(2-methoxypyridin-4-yl)phenyl)carbamoyl)-1-methyl-1H-pyrazole-3-sulfonamide]
9 | ≤ 500 | 248 | 67.2 | 0.3 | 1.32 | ≤ 500 | – | – | – | – | COc1cc(-c2cc(F)cc(C(C)C)c2NC(=O)NS(=O)(=O)c2cc(CN(C)C)n(C(C)C)n2)ccn1 [Example 37, 5-((Dimethylamino)methyl)-N-((4-fluoro-2-iso-propyl-6-(2-methoxypyridin-4-yl)phenyl)carbamoyl)-1-iso-propyl-1H-pyrazole-3-sulfonamide]
10 | ≤ 500 | 375 | 51.5 | 1.2 | 1.14 | ≤ 500 | – | – | – | – | CC(C)c1cc(F)cc(-c2cccc(C#N)c2)c1NC(=O)NS(=O)(=O)c1cc(CN(C)C)n(C)n1 [Example 38, N-((3′-Cyano-5-fluoro-3-iso-propyl-[1,1′-biphenyl]-2-yl)carbamoyl)-5-((dimethylamino)methyl)-1-methyl-1H-pyrazole-3-sulfonamide]
11 | ≤ 500 | 259 | 64.9 | 0.5 | 0.75 | ≤ 500 | – | – | – | – | CC(C)c1cc(F)cc(-c2cccnc2)c1NC(=O)NS(=O)(=O)c1cc(CN(C)C)n(C)n1 [Example 44, 5-((Dimethylamino)methyl)-N-((4-fluoro-2-isopropyl-6-(pyridin-3-yl)phenyl)carbamoyl)-1-methyl-1H-pyrazole-3-sulfonamide]
12 | ≤ 500 | 259 | 65.6 | 0.5 | 0.98 | ≤ 500 | – | – | – | – | Cc1cc(-c2cc(F)cc(C(C)C)c2NC(=O)NS(=O)(=O)c2cc(CN(C)C)n(C)n2)n(C)n1 [Example 45]
13 | ≤ 500 | 600 | 27.8 | 3.7 | 3.68 | ≤ 500 | – | – | – | – | CC#Cc1cc(-c2cc(F)cc(C(C)C)c2NC(=O)NS(=O)(=O)c2ccn(C(C)C)n2)ccn1 [Example 51, N-((4-Fluoro-2-isopropyl-6-(2-(prop-1-yn-1-yl)pyridin-4-yl)phenyl)carbamoyl)-1-isopropyl-1H-pyrazole-3-sulfonamide]
14 | ≤ 500 | 200 | 85.4 | 1.6 | 2.5 | ≤ 500 | – | – | – | – | CC(C)c1cc(F)cc(-c2ccnc(C#N)c2)c1NC(=O)NS(=O)(=O)c1cn(C(C)C)cn1 [Example 54, N-((2-(2-Cyanopyridin-4-yl)-4-fluoro-6-isopropylphenyl)carbamoyl)-1-isopropyl-1H-imidazole-4-sulfonamide]
15 | ≤ 500 | 1860 | 9.8 | 6.9 | 3.25 | ≤ 1000 | – | – | – | – | COc1cc(-c2cc(F)c3c(c2NC(=O)NS(=O)(=O)c2ccn(C(C)C)n2)CCC3)ccn1 [Example 55, N-((7-Fluoro-5-(2-methoxypyridin-4-yl)-2,3-dihydro-1H-inden-4-yl)carbamoyl)-1-isopropyl-1H-pyrazole-3-sulfonamide]
16 | ≤ 500 | 346 | 48.1 | 2.2 | 1.77 | – | – | – | – | – | COc1cc(-c2cc(F)cc(C(C)C)c2NC(=O)NS(=O)(=O)c2cncc(N(C)C)n2)ccn1 [Example 103, 6-(Dimethylamino)-N-((4-fluoro-2-isopropyl-6-(2-methoxypyridin-4-yl)phenyl)carbamoyl)pyrazine-2-sulfonamide]
17 | ≤ 500 | 841 | 19.8 | 1.2 | 1.04 | – | – | – | – | – | COc1cc(-c2ccc3c(c2NC(=O)NS(=O)(=O)c2cncc(N(C)C)n2)CCC3)ccn1 [Example 104, 6-(Dimethylamino)-N-((5-(2-methoxypyridin-4-yl)-2,3-dihydro-1H-inden-4-yl)carbamoyl)pyrazine-2-sulfonamide]
